Measurements as given in US12139487B2, “Compounds and uses thereof” (Foghorn Therapeutics Inc., priority 2022, dated 2024).

Test system: BRM-dependent transcription (BRG1 mutant lung cancer cell line A549)
Assay: BRM-dependent transcription, MMTV luciferase reporter in BRG1 mutant A549 cells
Assay type: cell-based
Conditions: Table 11; for IC50: A549-MMTV luciferase reporter, dexamethasone induced, 6 hours; for Ratio (MDA-MMTV IC50 (μM) divided by A549-MMTV IC50 (μM)): MMTV luciferase reporter cell lines, selectivity BRG1/BRM
Method in brief: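 Compound dose series added to dexamethasone-stimulated A549 cells (BRG1 mutant) carrying a BRM-dependent mouse mammary tumor virus luciferase reporter; luminescence measured at 6 h post-stimulation.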

IC50 [nM] | Ratio (MDA-MMTV IC50 (μM) divided by A549-MMTV IC50 (μM)) | IC50 (Homo sapiens, A549, 6 h) [nM] | Structure (SMILES)
10 | 41.47 | – | CCOc1nc([C@H](F)CF)ccc1-c1ccc2cnc(CNC(=O)c3cc(C(F)F)c4c(c3)S(=O)(=O)[C@@H](F)COC4)cc2n1 [Compound 460]
– | 29.67 | 14.2 | [2H]C([2H])([2H])C([2H])([2H])Oc1nc([C@@H](F)CF)ccc1-c1ccc2cnc(CNC(=O)c3cc(Cl)c4c(c3)S(=O)(=O)[C@@H](F)CCO4)cc2n1 [Compound 454]
– | 35.95 | 11.8 | [2H]C([2H])([2H])C([2H])([2H])Oc1nc([C@@H](F)CF)ccc1-c1ccc2cnc(CNC(=O)c3cc(Br)c4c(c3)S(=O)(=O)[C@@H](F)COC4)cc2n1 [Compound 489]
– | 38.09 | 9.4 | [2H]C([2H])([2H])Oc1ccc(-c2ccc3cnc(CNC(=O)c4cc(Br)c5c(c4)S(=O)(=O)[C@@H](F)COC5)cc3n2)nc1C1CC1(F)F (some centres unmarked) [Compound 480]
– | 27.83 | 15.2 | C=C(F)c1cc(C(=O)NCc2cc3nc(-c4cccc(N5C[C@@H](C)O[C@@H](C)C5)n4)ccc3cn2)cc2c1OCC[C@H](F)S2(=O)=O [Compound 443]
– | 27.40 | 15.3 | CCOc1cccc(-c2ccc3cnc(CNC(=O)c4cc(F)c5c(c4)S(=O)(=O)[C@@H](F)CCO5)cc3n2)n1 [Compound 358]
– | 23.28 | 16.3 | O=C(NCc1cc2nc(N3CCCc4cc(OC(F)(F)F)cnc43)ccc2cn1)c1cc(F)c2c(c1)S(=O)(=O)[C@@H](F)CCO2 [Compound 352]
– | 27.47 | 13.7 | COCCOc1cnc2c(-c3ccc4cnc(CNC(=O)c5cc(Cl)c6c(c5)S(=O)(=O)[C@@H](F)COC6)cc4n3)cccc2c1 [Compound 513]
– | 33.44 | 9.1 | COc1nc([C@H](F)CF)ccc1-c1ccc2cnc(CNC(=O)c3cc(Cl)c4c(c3)S(=O)(=O)[C@@H](F)COC4)cc2n1 [Compound 380]
– | 26.04 | 15.8 | Cc1cc(C(=O)NCc2cc3nc(N4CCOc5ccc(C(F)F)nc54)ccc3cn2)cc2c1OCC[C@H](F)S2(=O)=O [Compound 340]
– | 22.68 | 7.4 | CCOc1nc([C@H](F)CF)ccc1-c1ccc2cnc(CNC(=O)c3cc(F)c4c(c3)S(=O)(=O)[C@@H](F)CCO4)cc2n1 [Compound 390]
– | 27.54 | 6.2 | Cc1cc(C(=O)NCc2cc3nc(-c4ccc(OC(F)F)c(C5CC5)n4)ccc3cn2)cc2c1COC[C@H](F)S2(=O)=O [Compound 413]
– | 40.09 | 19.4 | Cc1cc(C(=O)NCc2cc3nc(-c4cccc(C5CC5)n4)ccc3cn2)cc2c1OCC[C@H](F)S2(=O)=O [Compound 339]
– | 30.55 | 13 | CCOc1nn(-c2ccc3cnc(CNC(=O)c4cc(C(F)F)c5c(c4)S(=O)(=O)[C@@H](F)COC5)cc3n2)cc1F [Compound 501]
– | 24.64 | 21.8 | COc1nc([C@@H](F)CF)ccc1-c1ccc2cnc(CNC(=O)c3cc(Br)c4c(c3)S(=O)(=O)[C@@H](F)CCO4)cc2n1 [Compound 383]
– | 29.71 | 13.5 | [2H]C([2H])([2H])C([2H])([2H])Oc1nc(C(F)F)ccc1-c1ccc2cnc(CNC(=O)c3cc(C(F)F)c4c(c3)S(=O)(=O)[C@@H](F)COC4)cc2n1 [Compound 446]
– | 27.27 | 20.5 | CCOc1ccc(-c2ccc3cnc(CNC(=O)c4cc(Cl)c5c(c4)S(=O)(=O)[C@@H](F)CCO5)cc3n2)nc1C1CC1(F)F (some centres unmarked) [Compound 370]
– | 26.38 | 19 | O=C(NCc1cc2nc(-c3cccc(C(F)F)n3)ccc2cn1)c1cc(F)c2c(c1)S(=O)(=O)[C@@H](F)CCO2 [Compound 334]
– | 31.82 | 23.7 | COCCOc1cnc2c(c1)OCCN2c1ccc2cnc(CNC(=O)c3cc(Br)c4c(c3)S(=O)(=O)[C@@H](F)CCO4)cc2n1 [Compound 424]
– | 30.32 | 16.3 | O=C(NCc1cc2nc(-c3cccc(C(F)(F)F)n3)ccc2cn1)c1cc(F)c2c(c1)S(=O)(=O)[C@@H](F)CCO2 [Compound 335]
– | 37.21 | 7.1 | CCOc1nc([C@@H](F)CF)ccc1-c1ccc2cnc(CNC(=O)c3cc(Cl)c4c(c3)S(=O)(=O)[C@@H](F)COC4)cc2n1 [Compound 475]
– | 24.79 | 22.6 | O=C(NCc1cc2nc(-c3cccc(OC(F)F)c3F)ccc2cn1)c1cc(Cl)c2c(c1)S(=O)(=O)[C@@H](F)COC2 [Compound 444]

IC50 [nM] | Ratio (MDA-MMTV IC50 (μM) divided by A549-MMTV IC50 (μM)) | IC50 (Homo sapiens, A549, 6 h) [nM] | Structure (SMILES)
13.5 | 30.86 | – | [2H]C([2H])([2H])Oc1ccc(-c2ccc3cnc(CNC(=O)c4cc(Cl)c5c(c4)S(=O)(=O)[C@@H](F)COC5)cc3n2)nc1C1CC1(F)F (some centres unmarked) [Compound 507]
– | 27.87 | 15.3 | [2H]C([2H])([2H])Oc1ccc(-c2ccc3cnc(CNC(=O)c4cc(C(F)F)c5c(c4)S(=O)(=O)[C@@H](F)COC5)cc3n2)nc1[C@H]1CC1(F)F [Compound 459]
– | 44.98 | 19.9 | O=C(NCc1cc2nc(-c3cccc(OC(F)F)n3)ccc2cn1)c1cc(Cl)c2c(c1)S(=O)(=O)[C@@H](F)CCO2 [Compound 346]
– | 23.10 | 13.1 | O=C(NCc1cc2nc(-c3ccc(OC(F)F)c(C4CC4)n3)ccc2cn1)c1cc(Cl)c2c(c1)S(=O)(=O)[C@@H](F)CCO2 [Compound 355]
– | 33.25 | 17.3 | O=C(NCc1cc2nc(-c3cccc4c3OC(F)(F)O4)ccc2cn1)c1cc(C(F)F)c2c(c1)S(=O)(=O)[C@@H](F)COC2 [Compound 503]
– | 25.93 | 13 | COCCc1ccc2c(n1)N(c1ccc3cnc(CNC(=O)c4cc(F)c5c(c4)S(=O)(=O)[C@@H](F)CCO5)cc3n1)CCO2 [Compound 432]
– | 22.45 | 16.9 | COc1nc([C@](C)(F)C(F)F)ccc1-c1ccc2cnc(CNC(=O)c3cc(F)c4c(c3)S(=O)(=O)[C@@H](F)CCO4)cc2n1 [Compound 363]
– | 33.87 | 13.3 | [2H]C([2H])([2H])C([2H])([2H])Oc1nc(C(F)F)ccc1-c1ccc2cnc(CNC(=O)c3cc(Br)c4c(c3)S(=O)(=O)[C@@H](F)COC4)cc2n1 [Compound 486]
– | 39.75 | 11 | CCOc1nn(-c2ccc3cnc(CNC(=O)c4cc(Cl)c5c(c4)S(=O)(=O)[C@@H](F)COC5)cc3n2)cc1F [Compound 472]
– | 24.90 | 9.2 | [2H]C([2H])([2H])Oc1nc([C@H](F)CF)ccc1-c1ccc2cnc(CNC(=O)c3cc(F)c4c(c3)S(=O)(=O)[C@@H](F)CCO4)cc2n1 [Compound 394]
– | 21.63 | 10.6 | CCOc1nc(C(F)F)ncc1-c1ccc2cnc(CNC(=O)c3cc(Cl)c4c(c3)S(=O)(=O)[C@@H](F)COC4)cc2n1 [Compound 505]
– | 22.06 | 14.6 | CCOc1nc(C(F)F)ncc1-c1ccc2cnc(CNC(=O)c3cc(C(F)F)c4c(c3)S(=O)(=O)[C@@H](F)COC4)cc2n1 [Compound 510]
– | 21.59 | 15.6 | O=C(NCc1cc2nc(-c3ccnc(N4CCCC4)n3)ccc2cn1)c1cc(Cl)c2c(c1)S(=O)(=O)[C@@H](F)CCO2 [Compound 345]
12.4 | 22.68 | – | O=C(NCc1cc2nc(-c3ccc(OC(F)F)c(C4CC4)n3)ccc2cn1)c1cc(Cl)c2c(c1)S(=O)(=O)[C@@H](F)CCO2 [Compound 357]
– | 26.53 | 17.2 | COCc1ccc(-c2ccc3cnc(CNC(=O)c4cc(F)c5c(c4)S(=O)(=O)[C@@H](F)CCO5)cc3n2)nc1C1CC1 [Compound 354]
– | 33.55 | 10.4 | [2H]C([2H])([2H])C([2H])([2H])Oc1nc([C@H](F)CF)ccc1-c1ccc2cnc(CNC(=O)c3cc(C(F)F)c4c(c3)S(=O)(=O)[C@@H](F)COC4)cc2n1 [Compound 478]
– | 32.34 | 16.5 | O=C(NCc1cc2nc(-c3ccc(OC(F)F)c(C4CC4)n3)ccc2cn1)c1cc(Br)c2c(c1)S(=O)(=O)[C@@H](F)COC2 [Compound 408]
– | 23.59 | 18.2 | O=C(NCc1cc2nc(-c3ccc([C@H](F)C(F)F)c(C4CC4)n3)ccc2cn1)c1cc(Cl)c2c(c1)S(=O)(=O)[C@@H](F)COC2 [Compound 491]
– | 35.46 | 6.2 | [2H]C([2H])([2H])C([2H])([2H])Oc1nc([C@@H](F)CF)ccc1-c1ccc2cnc(CNC(=O)c3cc(C(F)F)c4c(c3)S(=O)(=O)[C@@H](F)COC4)cc2n1 [Compound 479]
– | 21.68 | 14.1 | COc1ccccc1-c1ccc2cnc(CNC(=O)c3cc(F)c4c(c3)S(=O)(=O)[C@@H](F)CCO4)cc2n1 [Compound 338]
– | 50.12 | 19.9 | CCOc1ccc(-c2ccc3cnc(CNC(=O)c4cc(C(F)F)c5c(c4)S(=O)(=O)[C@@H](F)COC5)cc3n2)nc1C1CC1(F)F (some centres unmarked) [Compound 416]
